This is an account of results in ChEMBL document CHEMBL1201862, “PubChem BioAssay data set” (2004).

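Step 1: Grow cells in 96-well plates. Step 2: Expose to compound for 48 hours at 5 concentrations. Step 3: Interpolate endpoints linearly; if unreached, use highest concentration. The concentration for 50% growth inhibition is given as GI50.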 Active and inactive are the calls of the source. Rule as the data show it: active = GI50 up to about 1.1 µM and inactive = higher. Some results are limits rather than exact numbers.

Some test systems named below: 786-0; CAKI-1; HCC 2998; IGROV-1; M14; MCF7; MDA-MB-435; MDA-N; NCI-H226; NCI-H23; OVCAR-4; OVCAR-5; OVCAR-8; RPMI-8226; SF-295; SN12C; SR; U-251; UACC-257; UO-31.
Assay in all cases: NCI anticancer screen, dose series, 48 h

Consider `Cc1c2cnccc2c(C)c2c1c1ccccc1n2CCOC(=O)c1ccccc1`, for which the GI50 in the experiment on 786-0 is 11.5 µM (inactive); with CAKI-1 it was 6.24 µM (inactive); in the experiment with HCC 2998 it was 10.7 µM (inactive); in the experiment on IGROV-1, 9.44 µM (inactive); in the experiment on M14, 26.7 µM (inactive); in the experiment with MCF7 it was 9.64 µM (inactive). The GI50 with MDA-MB-435 is 14.4 µM (inactive); in the experiment on MDA-N, 17.6 µM (inactive); in the experiment with NCI-H226 it was 12.6 µM (inactive); in the experiment with NCI-H23 it was 15.7 µM (inactive); with OVCAR-4, 16.5 µM (inactive); in the experiment with OVCAR-5 it was 14.4 µM (inactive). Besides, the GI50 in the experiment with OVCAR-8 is 6.55 µM (inactive); in the experiment with RPMI-8226, 8.57 µM (inactive); in the experiment on SF-295, 11 µM (inactive); in the experiment with SN12C, 2.52 µM (inactive); in the experiment with SR, 17.5 µM (inactive); with U-251, 15.7 µM (inactive). Moreover, the results for the GI50 in the experiment with UACC-257 and with UO-31 were 12.4 µM (inactive) and 3.1 µM (inactive), respectively.
As to `O=P(Oc1ccccc1)(Oc1ccccc1)Oc1c[nH]c2ccccc12`, the GI50 with 786-0 is 15.5 µM (inactive); with CAKI-1 it was 4.13 µM (inactive); in the experiment on HCC 2998, 1.95 µM (inactive); in the experiment with IGROV-1 it was 4.07 µM (inactive); in the experiment with M14, 11.3 µM (inactive); in the experiment on MCF7, 11 µM (inactive). Moreover, the GI50 in the experiment on MDA-MB-435 is 12.2 µM (inactive); in the experiment on MDA-N, 11 µM (inactive); in the experiment on NCI-H226 it was 9.68 µM (inactive); in the experiment on NCI-H23, 10.1 µM (inactive); in the experiment with OVCAR-4, 3.13 µM (inactive); with OVCAR-5, 0.0449 µM (active). The GI50 was 13.5 µM (inactive) in the experiment on OVCAR-8; 0.103 µM (active) in the experiment with RPMI-8226; 3.28 µM (inactive) in the experiment on SF-295; 11.6 µM (inactive) in the experiment on SN12C; 25.4 µM (inactive) with SR; 12.3 µM (inactive) with U-251. In addition, the GI50 in the experiment on UACC-257 was 8.55 µM (inactive); with UO-31, 5.33 µM (inactive).
As to `CN(C)c1ccc(/C=C2\C[C@H]3[C@@H]4CC=C5C[C@@H](N6CCCC6)CC[C@]5(C)[C@H]4CC[C@]3(C)[C@H]2O)cc1`, the GI50 in the experiment with 786-0 is 0.659 µM (active); with CAKI-1, 1.16 µM (inactive); in the experiment with HCC 2998, 0.91 µM (active); in the experiment with IGROV-1 it was 0.989 µM (active); with M14, 0.773 µM (active); with MCF7, 2.96 µM (inactive). The GI50 in the experiment with MDA-MB-435 was 1.35 µM (inactive); in the experiment with MDA-N, 1.01 µM (active); with NCI-H226, 0.813 µM (active); with NCI-H23 it was 3.66 µM (inactive); with OVCAR-4, 0.796 µM (active); in the experiment on OVCAR-5, 3.99 µM (inactive). Also, the GI50 is 0.769 µM (active) in the experiment with OVCAR-8; 0.973 µM (active) with RPMI-8226; 1.13 µM (inactive) with SF-295; 1.22 µM (inactive) with SN12C; 0.773 µM (active) in the experiment with SR; 0.925 µM (active) in the experiment with U-251. Moreover, the GI50 is 0.957 µM (active) in the experiment on UACC-257 and 0.838 µM (active) with UO-31.
Consider `CN1CC[C@]2(c3cccc(O)c3)CC(=O)/C(=C/c3ccc(Cl)c(Cl)c3)[C@@H]1C2`, for which the GI50 in the experiment with 786-0 was 1.05 µM (active); in the experiment on CAKI-1, 1.08 µM (active); with HCC 2998 it was 1.41 µM (inactive); with IGROV-1, 1.88 µM (inactive); in the experiment with M14 it was 1.15 µM (inactive); with MCF7, 1.29 µM (inactive). In addition, the GI50 in the experiment on MDA-MB-435 is 0.337 µM (active); in the experiment with MDA-N, 0.552 µM (active); in the experiment on NCI-H226, 2.34 µM (inactive); in the experiment on NCI-H23 it was 1.53 µM (inactive); with OVCAR-4, 1.47 µM (inactive); with OVCAR-5, 1.77 µM (inactive). In addition, the GI50 with OVCAR-8 was 1.49 µM (inactive); in the experiment with RPMI-8226, 0.262 µM (active); with SF-295, 1.52 µM (inactive); in the experiment with SN12C, 1.04 µM (active); with SR, 0.281 µM (active); in the experiment with U-251, 0.975 µM (active). Moreover, the GI50 in the experiment on UACC-257 is 1.49 µM (inactive); in the experiment with UO-31 it was 1.32 µM (inactive).
Turning to `O=C1Nc2ccccc2C1(O)Cc1ccccn1` (stereo not given), the GI50 in the experiment on 786-0, in the experiment with CAKI-1, with HCC 2998, with IGROV-1, with M14 and with MCF7 was > 100 µM (inactive) each time. Besides, the GI50 in the experiment on MDA-MB-435, with MDA-N, with NCI-H226, with NCI-H23, with OVCAR-4 and with OVCAR-5 was > 100 µM (inactive) each time. The GI50 in the experiment on OVCAR-8, in the experiment with RPMI-8226, in the experiment on SF-295, in the experiment with SN12C, in the experiment with SR and in the experiment on U-251 was > 100 µM (inactive) each time. Besides, the GI50 with UACC-257 and with UO-31 was > 100 µM (inactive) throughout.
In the case of `CCCCCCCCCC(=O)NCCc1c[nH]c2ccc(OC)cc12`, the GI50 in the experiment with 786-0 was 19.2 µM (inactive); in the experiment on CAKI-1 it was 25.4 µM (inactive); with HCC 2998, 19.5 µM (inactive); in the experiment on IGROV-1, 14.9 µM (inactive); in the experiment with M14, 17.9 µM (inactive); with MCF7, 17.5 µM (inactive). Also, the GI50 is 24.5 µM (inactive) in the experiment on MDA-MB-435; 18.8 µM (inactive) in the experiment with MDA-N; 19.9 µM (inactive) with NCI-H226; 17.3 µM (inactive) in the experiment with NCI-H23; > 100 µM (inactive) in the experiment with OVCAR-4; 23.9 µM (inactive) in the experiment on OVCAR-5. Moreover, the GI50 with OVCAR-8 is 16.6 µM (inactive); in the experiment on RPMI-8226, 21.1 µM (inactive); in the experiment on SF-295, 17.4 µM (inactive); in the experiment on SN12C, 17.4 µM (inactive); in the experiment on SR it was 40.9 µM (inactive); in the experiment on U-251 it was 17 µM (inactive). In addition, the GI50 in the experiment on UACC-257 is 20.8 µM (inactive); in the experiment on UO-31, 12.7 µM (inactive).
With `CC(C)=CCC[C@](C)(O[C@@H]1O[C@H](CO)[C@@H](O)[C@H](O)[C@H]1O)[C@H]1CC[C@]2(C)[C@@H]1[C@H](O)C[C@@H]1[C@@]3(C)CC[C@H](O)C(C)(C)[C@@H]3[C@@H](O[C@@H]3O[C@H](CO)[C@@H](O)[C@H](O)[C@H]3O)C[C@]12C` [GINSENOSIDE RG1], the GI50 in the experiment on 786-0, in the experiment on CAKI-1, with HCC 2998, in the experiment with IGROV-1, in the experiment with M14 and with MCF7 was > 100 µM (inactive) each time. The GI50 in the experiment with MDA-MB-435, with MDA-N, in the experiment on NCI-H226, in the experiment with NCI-H23, in the experiment with OVCAR-4 and in the experiment with OVCAR-5 was > 100 µM (inactive) in each case. In addition, the GI50 in the experiment with OVCAR-8, in the experiment with RPMI-8226, with SF-295, with SN12C, in the experiment on SR and in the experiment with U-251 was > 100 µM (inactive) throughout. Moreover, the GI50 with UACC-257 and with UO-31 was > 100 µM (inactive) in each case.
As to `Cc1cccc(NC(=S)Nc2cccc(Cl)c2)n1`, the GI50 in the experiment with 786-0 is > 70.6 µM (inactive); with CAKI-1, > 100 µM (inactive); with HCC 2998, > 100 µM (inactive); in the experiment with IGROV-1 it was 44.2 µM (inactive); in the experiment on M14 it was > 100 µM (inactive); in the experiment on MCF7 it was > 100 µM (inactive). Further, the GI50 was > 100 µM (inactive) with MDA-MB-435; > 100 µM (inactive) in the experiment with MDA-N; > 56.9 µM (inactive) with NCI-H226; > 100 µM (inactive) with NCI-H23; > 100 µM (inactive) in the experiment on OVCAR-4; > 100 µM (inactive) in the experiment on OVCAR-5. The GI50 is > 80.9 µM (inactive) with OVCAR-8; > 100 µM (inactive) in the experiment with RPMI-8226; 32.1 µM (inactive) in the experiment on SF-295; > 100 µM (inactive) in the experiment on SN12C; > 100 µM (inactive) in the experiment on SR; 47.1 µM (inactive) in the experiment on U-251. The GI50 with UACC-257 and in the experiment with UO-31 was > 100 µM (inactive) in each case.
Turning to `CCC(=O)OCOc1ccc(/C=C2\CCC(CN(C)C)C2=O)cc1` (stereo not given), the GI50 in the experiment with 786-0 is 2.45 µM (inactive); in the experiment on CAKI-1, 4.67 µM (inactive); in the experiment on HCC 2998, 5.96 µM (inactive); with IGROV-1, 6.44 µM (inactive); in the experiment with M14, 3.42 µM (inactive); in the experiment with MCF7, 3.03 µM (inactive). The GI50 in the experiment with MDA-MB-435 was 3.34 µM (inactive); in the experiment with MDA-N it was 5.47 µM (inactive); with NCI-H226 it was 13.8 µM (inactive); with NCI-H23, 5.42 µM (inactive); with OVCAR-4 it was 4.09 µM (inactive); in the experiment with OVCAR-5, 16.8 µM (inactive). For the same compound, the GI50 was 4.19 µM (inactive) in the experiment with OVCAR-8; 2.43 µM (inactive) in the experiment with RPMI-8226; 8.85 µM (inactive) in the experiment on SF-295; 2.72 µM (inactive) in the experiment with SN12C; 2.15 µM (inactive) in the experiment on SR; 11.1 µM (inactive) in the experiment on U-251. The values for the GI50 in the experiment on UACC-257 and with UO-31 were 3.39 µM (inactive) and 7.8 µM (inactive), respectively.
Take `CN(C(=O)Cc1ccc(Cl)c(Cl)c1)[C@@H]1CCCC[C@H]1[N+]1(C)CC=CC1`: the GI50 in the experiment with 786-0, with CAKI-1, in the experiment on HCC 2998, in the experiment on IGROV-1, with M14 and in the experiment on MCF7 was > 100 µM (inactive) throughout. The GI50 with MDA-MB-435, with MDA-N, in the experiment with NCI-H226, in the experiment with NCI-H23, in the experiment on OVCAR-4 and with OVCAR-5 was > 100 µM (inactive) each time. Moreover, the GI50 with OVCAR-8, in the experiment with RPMI-8226, in the experiment with SF-295, in the experiment on SN12C, with SR and in the experiment on U-251 was > 100 µM (inactive) throughout. Besides, the GI50 in the experiment on UACC-257 and in the experiment with UO-31 was > 100 µM (inactive) each time.
